Results taken from US20230117470A1, “SUBSTITUTED PYRAZOLE COMPOUNDS AS TOLL RECEPTOR INHIBITORS” (BRISTOL-MYERS SQUIBB COMPANY, priority 2019, published 2023).

Legend:
Format in all cases: cell-based
human TLR8 = biological target: T1, human TLR8 (Homo sapiens, UniProt Q9NR97); test: TLR8 inhibition reporter assay (HEK-Blue cells, SEAP reporter, R848 stimulation); conditions: HEK-Blue cells overexpressing human TLR8, SEAP reporter, R848 15.9 μM
T1 construct: host or cells: HEK-Blue cells
T1 sequence (Q9NR97 27-1041): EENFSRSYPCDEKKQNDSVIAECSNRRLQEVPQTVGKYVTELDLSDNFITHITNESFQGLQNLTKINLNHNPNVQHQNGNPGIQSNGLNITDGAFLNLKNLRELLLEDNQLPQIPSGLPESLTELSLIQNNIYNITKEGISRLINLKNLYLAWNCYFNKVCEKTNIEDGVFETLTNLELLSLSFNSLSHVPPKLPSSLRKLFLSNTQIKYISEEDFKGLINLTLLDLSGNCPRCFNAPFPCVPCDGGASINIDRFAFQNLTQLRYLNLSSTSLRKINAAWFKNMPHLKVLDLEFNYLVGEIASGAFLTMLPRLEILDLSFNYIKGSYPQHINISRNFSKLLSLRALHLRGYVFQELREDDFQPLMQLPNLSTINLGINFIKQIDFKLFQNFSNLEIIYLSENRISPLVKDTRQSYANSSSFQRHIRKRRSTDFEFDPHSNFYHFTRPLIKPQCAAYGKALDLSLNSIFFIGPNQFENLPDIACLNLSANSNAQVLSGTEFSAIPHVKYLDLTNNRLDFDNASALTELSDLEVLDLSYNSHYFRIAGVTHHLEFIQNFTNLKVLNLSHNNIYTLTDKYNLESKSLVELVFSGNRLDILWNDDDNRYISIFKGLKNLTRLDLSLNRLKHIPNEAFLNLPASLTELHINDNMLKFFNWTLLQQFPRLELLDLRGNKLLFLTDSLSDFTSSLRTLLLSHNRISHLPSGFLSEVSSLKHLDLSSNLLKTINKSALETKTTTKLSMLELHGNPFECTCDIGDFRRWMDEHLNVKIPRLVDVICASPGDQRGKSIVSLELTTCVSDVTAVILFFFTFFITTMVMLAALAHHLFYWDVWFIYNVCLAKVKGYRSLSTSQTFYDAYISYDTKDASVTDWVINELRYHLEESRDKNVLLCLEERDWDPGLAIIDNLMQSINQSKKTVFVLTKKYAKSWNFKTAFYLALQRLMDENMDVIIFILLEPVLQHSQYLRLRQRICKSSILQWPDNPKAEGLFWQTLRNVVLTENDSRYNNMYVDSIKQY
Method in brief: (§1)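 30 min RT cpd pre-incubation (0.05 nM–50 μM final dose response) → agonist: gardiquimod 7.5 μM / R848 15.9 μM / ODN2006 5 nM for TLR7/8/9 resp. → 22 h, 37° C → SEAP via detection medium. % inhibition vs agonist+DMSO and reference inhibitor controls.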

human TLR9 = biological target: T2, human TLR9 (Homo sapiens, UniProt Q9NR96); test: TLR9 inhibition reporter assay (HEK-Blue cells, SEAP reporter, ODN2006 stimulation); conditions: HEK-Blue cells overexpressing human TLR9, SEAP reporter, ODN2006 5 nM
T2 construct: host or cells: HEK-Blue cells
T2 sequence (Q9NR96 26-1032): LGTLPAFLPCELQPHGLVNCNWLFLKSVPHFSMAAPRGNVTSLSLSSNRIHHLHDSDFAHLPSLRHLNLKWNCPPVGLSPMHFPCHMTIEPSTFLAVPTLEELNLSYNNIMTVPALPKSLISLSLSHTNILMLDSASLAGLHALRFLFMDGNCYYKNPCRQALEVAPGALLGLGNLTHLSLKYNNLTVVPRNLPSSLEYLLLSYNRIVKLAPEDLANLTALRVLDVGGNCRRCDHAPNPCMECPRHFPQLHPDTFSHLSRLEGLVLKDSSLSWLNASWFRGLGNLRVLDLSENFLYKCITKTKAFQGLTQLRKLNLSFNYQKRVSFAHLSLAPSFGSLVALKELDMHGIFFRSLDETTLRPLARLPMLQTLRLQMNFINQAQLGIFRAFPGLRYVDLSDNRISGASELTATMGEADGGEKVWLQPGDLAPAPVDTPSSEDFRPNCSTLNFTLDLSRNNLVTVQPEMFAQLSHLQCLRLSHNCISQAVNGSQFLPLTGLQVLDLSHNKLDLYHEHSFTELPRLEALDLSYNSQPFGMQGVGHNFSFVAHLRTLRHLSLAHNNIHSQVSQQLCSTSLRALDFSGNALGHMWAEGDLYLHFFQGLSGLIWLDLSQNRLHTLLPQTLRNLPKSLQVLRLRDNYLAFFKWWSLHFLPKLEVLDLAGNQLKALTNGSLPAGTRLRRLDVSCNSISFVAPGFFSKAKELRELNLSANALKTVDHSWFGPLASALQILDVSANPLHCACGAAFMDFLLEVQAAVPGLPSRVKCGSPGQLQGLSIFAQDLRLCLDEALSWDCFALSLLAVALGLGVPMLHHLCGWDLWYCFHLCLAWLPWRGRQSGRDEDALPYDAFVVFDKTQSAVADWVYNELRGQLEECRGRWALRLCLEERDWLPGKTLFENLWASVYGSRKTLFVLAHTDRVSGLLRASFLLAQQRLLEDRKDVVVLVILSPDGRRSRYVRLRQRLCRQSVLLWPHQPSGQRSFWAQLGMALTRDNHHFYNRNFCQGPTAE
Method in brief: as §1

human TLR7 = biological target: T3, human TLR7 (Homo sapiens, UniProt Q9NYK1); test: TLR7 inhibition reporter assay (HEK-Blue cells, SEAP reporter, gardiquimod stimulation); conditions: HEK-Blue cells overexpressing human TLR7, SEAP reporter, gardiquimod 7.5 μM
T3 construct: host or cells: HEK-Blue cells
T3 sequence (Q9NYK1 27-1049): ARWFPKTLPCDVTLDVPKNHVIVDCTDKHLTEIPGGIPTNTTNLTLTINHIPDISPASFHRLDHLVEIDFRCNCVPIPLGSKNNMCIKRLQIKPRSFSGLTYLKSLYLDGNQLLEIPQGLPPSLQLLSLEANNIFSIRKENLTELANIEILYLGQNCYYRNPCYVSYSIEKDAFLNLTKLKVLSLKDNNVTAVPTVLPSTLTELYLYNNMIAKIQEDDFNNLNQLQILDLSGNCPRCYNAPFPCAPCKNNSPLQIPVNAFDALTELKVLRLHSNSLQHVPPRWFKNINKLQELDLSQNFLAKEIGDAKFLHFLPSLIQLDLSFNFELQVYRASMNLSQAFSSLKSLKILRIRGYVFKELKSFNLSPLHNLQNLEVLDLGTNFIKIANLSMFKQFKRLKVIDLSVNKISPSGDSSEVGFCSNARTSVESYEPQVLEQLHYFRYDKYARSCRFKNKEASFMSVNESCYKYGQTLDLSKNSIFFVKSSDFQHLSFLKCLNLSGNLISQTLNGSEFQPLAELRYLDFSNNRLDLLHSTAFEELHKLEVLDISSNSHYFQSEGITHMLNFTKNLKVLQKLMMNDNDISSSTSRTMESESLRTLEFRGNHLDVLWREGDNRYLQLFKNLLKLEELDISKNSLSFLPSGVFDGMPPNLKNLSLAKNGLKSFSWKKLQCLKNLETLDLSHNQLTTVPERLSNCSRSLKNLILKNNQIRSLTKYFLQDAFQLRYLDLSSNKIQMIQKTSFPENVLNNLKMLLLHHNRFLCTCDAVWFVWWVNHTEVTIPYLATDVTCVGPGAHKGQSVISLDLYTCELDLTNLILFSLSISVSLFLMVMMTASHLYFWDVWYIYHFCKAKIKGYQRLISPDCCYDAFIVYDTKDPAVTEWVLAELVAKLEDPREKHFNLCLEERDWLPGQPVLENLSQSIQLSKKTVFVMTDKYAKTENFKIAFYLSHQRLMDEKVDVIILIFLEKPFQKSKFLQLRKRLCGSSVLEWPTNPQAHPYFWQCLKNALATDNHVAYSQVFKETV
Method in brief: as §1

Work on `Cc1c(C(=O)NC2CCN(C)CC2)n[nH]c1-c1cc(C)c2ncnn2c1` [compound 180] yielded an IC50 (human TLR8) of 3.7 nM, an IC50 (human TLR9) of 5280 nM and an IC50 (human TLR7) of 3.54 nM.
Compound `CCc1c(C(=O)NC2CCN(C(C)C)CC2)n[nH]c1-c1cc(C)c2ncnn2c1` [compound 182] has an IC50 (human TLR8) of 0.76 nM, an IC50 (human TLR9) of 13500 nM and an IC50 (human TLR7) of 1.74 nM.
`Cc1cc(-c2[nH]nc(C(=O)NC3CCNCC3)c2CC(F)(F)F)cn2ncnc12` [compound 194] showed an IC50 (human TLR8) of 0.37 nM, an IC50 (human TLR9) of 9220 nM and an IC50 (human TLR7) of 0.9 nM.
`Cc1cc(-c2[nH]nc(C3CCN(C(C)C)CC3)c2C(C)C)cn2ncnc12` [compound 207] gave an IC50 (human TLR8) of 0.31 nM, an IC50 (human TLR9) of 20700 nM and an IC50 (human TLR7) of 2.92 nM.
Compound `Cc1cc(-c2[nH]nc(C3CCN(C(=O)CN(C)C)CC3)c2C(C)C)cn2ncnc12` [compound 209] has an IC50 (human TLR8) of 0.14 nM, an IC50 (human TLR9) of 4170 nM and an IC50 (human TLR7) of 0.32 nM.
In the case of `Cc1cc(-c2[nH]nc(C3CCN(C(=O)CCNC(C)C)CC3)c2C(C)C)cn2ncnc12` [compound 210], the IC50 (human TLR8) is reported as 1.24 nM, the IC50 (human TLR9) is reported as 23800 nM and the IC50 (human TLR7) is reported as 1.8 nM.
For `Cc1cc(-c2[nH]nc(C3CCN(CC(=O)N(C)C)CC3)c2C(C)C)cn2ncnc12` [compound 212], the IC50 (human TLR8) was 0.63 nM, the IC50 (human TLR9) was 7390 nM and the IC50 (human TLR7) was 0.62 nM.
`Cc1cc(-c2[nH]nc(C3CCC(N(C)C(=O)C4CNC4)CC3)c2C(C)C)cn2ncnc12` (stereo not drawn) [compound 301] showed an IC50 (human TLR8) of 1.53 nM, an IC50 (human TLR9) of 12300 nM and an IC50 (human TLR7) of 7.77 nM.
`COc1cc(-c2[nH]nc(-c3ccc(C4CCNCC4)cc3)c2C(C)C)cn2ncnc12` [compound 308] was tested, and the IC50 (human TLR8) was 0.09 nM, the IC50 (human TLR9) was 15800 nM and the IC50 (human TLR7) was 0.18 nM.
`COc1cc(-c2[nH]nc(-c3ccc(C4CCN(CC(N)=O)CC4)cc3)c2C(C)C)cn2ncnc12` [compound 322] showed an IC50 (human TLR8) of 4.67 nM, an IC50 (human TLR9) of 35800 nM and an IC50 (human TLR7) of 15.7 nM.
For `COc1cc(-c2[nH]nc(-c3ccc(C4CN(C(=O)CN(C)C)C4)cc3)c2C(C)C)cn2ncnc12` [compound 335], the IC50 (human TLR8) was 11.1 nM, the IC50 (human TLR9) was over 50000 nM and the IC50 (human TLR7) was 15.5 nM.
